From ChEMBL document CHEMBL2384955, “Structure-activity relationships in aminosterol antibiotics: the effect of stereochemistry at the 7-OH group” (2013)
Calls of active or inactive are those of the source. The calls are words filed in the database; no cut-off is given here.

Columns and labels:
Enterococcus faecalis = test: Antibacterial activity against Enterococcus faecalis ATCC 29212 assessed as growth inhibition assessed as cell viability after 24 hrs by resazurin-based microplate assay; type: functional; details: ATCC 29212, 24 h
Lipid bilayer [1] = test: Binding affinity to DOPG large unilamellar vesicle assessed as release of calcein at 1 mg/mL measured for 1 min by spectrophotometric analysis
Lipid bilayer [2] = test: Binding affinity to DOPC/DOPG large unilamellar vesicle assessed as release of calcein at 1 mg/mL measured for 1 min by spectrophotometric analysis
Pseudomonas aeruginosa = test: Antibacterial activity against Pseudomonas aeruginosa ATCC 27853 assessed as growth inhibition assessed as cell viability after 24 hrs by resazurin-based microplate assay; type: functional; details: ATCC 27853, 24 h
Escherichia coli = test: Antibacterial activity against Escherichia coli ATCC 25922 assessed as growth inhibition assessed as cell viability after 24 hrs by resazurin-based microplate assay; type: functional; details: ATCC 25922, 24 h
Lipid bilayer [3] = test: Binding affinity to zwitterionic DOPC large unilamellar vesicle assessed as release of calcein at 1 mg/mL measured for 1 min by spectrophotometric analysis relative to control
Staphylococcus aureus = test: Antibacterial activity against Staphylococcus aureus ATCC 29213 assessed as cell viability after 24 hrs by resazurin-based microplate assay; type: functional; details: ATCC 29213, 24 h

MIC (Enterococcus faecalis)	Activity (Lipid bilayer [1])	Activity (Lipid bilayer [2])	MIC (Pseudomonas aeruginosa)	MIC (Escherichia coli)	Activity (Lipid bilayer [3])	MIC (Staphylococcus aureus)	SMILES
12 µg/mL	inactive	inactive	24 µg/mL	12 µg/mL	inactive	12 µg/mL	CC(C)[C@@H](CC[C@@H](C)[C@H]1CC[C@H]2[C@@H]3[C@@H](O)C[C@H]4C[C@@H](NCCCNCCCCN)CC[C@]4(C)[C@H]3CC[C@]12C)OS(=O)(=O)O.O=C(O)C(F)(F)F
32 µg/mL	Active	Active	8 µg/mL	2 µg/mL	50%	4 µg/mL	CC(C)[C@@H](CC[C@@H](C)[C@H]1CC[C@H]2[C@@H]3[C@H](O)C[C@H]4C[C@@H](NCCCNCCCCNCCCN)CC[C@]4(C)[C@H]3CC[C@]12C)OS(=O)(=O)O.Cl
2 µg/mL	Active	Active	4 µg/mL	8 µg/mL	50%	2 µg/mL	CC(C)[C@@H](CC[C@@H](C)[C@H]1CC[C@H]2[C@@H]3[C@H](O)C[C@H]4C[C@@H](NCCCNCCCCN)CC[C@]4(C)[C@H]3CC[C@]12C)OS(=O)(=O)O.CC(O)C(=O)O
16 µg/mL	Active	inactive	32 µg/mL	1 µg/mL	50%	8 µg/mL	CC(C)[C@@H](CC[C@@H](C)[C@H]1CC[C@H]2[C@@H]3[C@@H](O)C[C@H]4C[C@@H](NCCCNCCCCNCCCN)CC[C@]4(C)[C@H]3CC[C@]12C)OS(=O)(=O)O.O=C(O)C(F)(F)F
